Measurements from patent US5877199A, “Heterocyclic compounds, their preparation and their therapeutic use” (priority 1994, dated 1999).

Target: T1, m1 muscarinic receptors (Homo sapiens, UniProt P11229)
T1 construct: expressed in transfected cells; host or cells: CHO (Chinese Hamster Ovary) cells, membranes
T1 sequence (P11229 1-460): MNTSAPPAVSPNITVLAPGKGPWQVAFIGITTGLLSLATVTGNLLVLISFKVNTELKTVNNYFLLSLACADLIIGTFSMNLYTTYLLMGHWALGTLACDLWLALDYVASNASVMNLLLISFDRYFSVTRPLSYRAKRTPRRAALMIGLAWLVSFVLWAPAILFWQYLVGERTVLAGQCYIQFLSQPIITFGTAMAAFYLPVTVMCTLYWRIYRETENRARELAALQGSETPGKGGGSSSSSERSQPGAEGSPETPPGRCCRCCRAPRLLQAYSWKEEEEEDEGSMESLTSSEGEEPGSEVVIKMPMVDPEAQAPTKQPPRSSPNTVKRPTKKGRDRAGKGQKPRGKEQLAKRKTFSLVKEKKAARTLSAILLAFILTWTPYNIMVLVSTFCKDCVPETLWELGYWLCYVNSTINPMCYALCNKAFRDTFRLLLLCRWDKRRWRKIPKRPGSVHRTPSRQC
Test: Effect on ACh binding: ACh inhibition of 3H-NMS binding (indirect assay) on CHO cell membranes
Details: tested at 3 μg/ml; 0.15 nM 3H-NMS, 30 μM ACh, 0.2 mM GTP, pH 7.4, 30° C., two hours
Text: The compounds of the present invention may be assayed for allosteric activity at m1 muscarinic receptors as described below, although the assays we describe are not necessarily exhaustive, and other assays may be employed, as desired, to establish allosterism.
A suitable cell line is CHO (Chinese Hamster Ovary), which are readily engineered to express only one receptor sub-type.
To obtain the large amount of cell membranes required, plates of 530 cm^2 culture area were used. CHO cells which express m1, m2, m3 and m4 receptors were grown separately in MEM alpha medium containing 10% newborn calf serum and antibiotics. When cells reached confluence, they were washed twice with 10 ml of 20 mM HEPES containing 10 mM EDTA (pH 7.4), scraped into the same buffer and homogenized using a Polytron (trademark) homogenizer (setting 5-6 for 5 sec×2). Membrane pellets were obtained by centrifugation (40000×g, 10 min, 4° C.) and resuspended in 20 mM HEPES-0.1 mM EDTA (pH 7.4). Centrifugation and resuspension were repeated twice to wash the cell membranes. After measurement of membrane protein, the membranes (1 or 2 mg protein/ml) were stored at -70° C.
While the direct assay measures ACh (=acetylcholine) binding only to the high affinity state, the indirect assay measures effects only at the low affinity state. This is achieved by including 0.2 mM GTP in the assay. In this assay a fixed concentration of ^3 H-NMS (roughly the Kd value) is incubated in the absence and presence of a fixed concentration of ACh (at about the IC50 value) and the effects of three concentrations of test agent are measured, again in the absence and presence of ACh.
Calculating the effects on ^3 H-NMS binding alone is as follows: binding in the presence of the agent is expressed as a percentage of binding in its absence and, if the effect is inhibitory, an IC50 is estimated graphically. The assay also contains a single high concentration of ^3 H-NMS (4 nM, about 30 times the Kd) which provides an estimate of Bmax (i.e. maximum binding).
Expressing the effect on cold ACh binding will be explained with reference to FIGS. 1a, b and c. These figures show theoretical data and the effects of the transformations described below. In FIGS. 1a and 1b ^3 H-NMS and cold ACh are present at their Kd concentrations; in FIG. 1a the agent has a negative allosteric effect on ^3 H-NMS, while in FIG. 1b it has a positive allosteric effect on ^3 H-NMS. The left panels show the amount of ^3 H-NMS specifically bound in the assay. If the affinity of ACh is reduced by the test agent, as shown in the top panels of FIGS. 1a and 1b, the inhibition by ACh will decrease, but the counts recovered will also depend on the effect of the agent on ^3 H-NMS binding alone. To calculate the effect on ACh binding the inhibitory effect of ACh is first calculated as a percent of its own control in the absence of ACh. Next it is assumed that fractional inhibition is the same as tractional occupancy, and inhibition in the presence of agent is expressed as a percentage of inhibition in the absence of agent. The effects of these transformations are shown in the centre panels. Expressing inhibition by ACh in the presence of agent as a percentage of inhibition in the absence of agent allows the effect of the agent on cold ACh binding to be seen on the same scale as the effect on ^3 H-NMS and ^3 H-ACh binding and is generally preferred.
If the concentration of ^3 H-NMS used in the indirect assay is around the Kd value or less, the transformation described above provides a qualitative and semi-quantitative measure of the agent's effect. If a higher concentration of ^3 H-NMS is used, or if the agent has a positive allosteric effect on ^3 H-NMS, then the results of this transformation may be misleading. […] It is assumed that ACh binds to a single affinity state i.e. that its inhibition curve has a slope of 1, and so an IC50 is calculated from the percentage inhibition of control binding. […]

Compound	Effect on ACh Binding
CCCOc1c(CC(=O)O)cc(C)c2c3ccccc3n(Cc3ccccc3)c12 [Example 132, (9-Benzyl-4-methyl-1-propoxycarbazol-2-yl)acetic Acid]	2.68
CCCc1cc(C(Cc2cccc([N+](=O)[O-])c2)C(=O)O)c(SC)c2c1c1ccccc1n2Cc1cccc([N+](=O)[O-])c1 (stereo not shown) [Example 172, 2-[1-Methylthio-9-(3-nitrobenzyl)-4-propylcarbazol-2-yl]-3-(3-nitrophenyl)propionic Acid]	2.59
CSc1c(CC(=O)O)cc(C)c2c3ccccc3n(CCCc3ccccc3)c12 [Example 214, [4-Methyl-1-methylthio-9-(3-phenylpropyl)carbazol-2-yl]acetic Acid]	4.34
Cc1cc(CC(=O)O)c(SCc2ccccc2)c2c1c1ccccc1n2C [Example 206, (1-Benzylthio-4,9-dimethylcarbazol-2-yl)acetic Acid]	2.13
CSc1c(CC(=O)O)cc(C)c2c3ccccc3n(Cc3cccc(OCc4ccccc4)c3)c12 [Example 136, [9-(3-Benzyloxybenzyl)-4-methyl-1-methylthiocarbazol-2-yl]acetic Acid]	2.36
CSc1c(CC(=O)O)cc(C)c2c3ccccc3n(CCc3cccc(Cl)c3)c12 [Example 229, {9-[2-(3-Chlorophenyl)ethyl]-4-methyl-1-methylthiocarbazol-2-yl}acetic Acid]	5.79
CSc1c(CC(=O)O)cc(C)c2c3ccccc3n(CCc3ccccc3)c12 [Example 212, [4-Methyl-1-methylthio-9-(2-phenethyl)carbazol-2-yl]acetic Acid]	4.93
CSc1c(Cc2nnn[nH]2)cc(C)c2c3ccccc3n(Cc3ccccc3)c12 [Example 97, 5-[(9-Benzyl-4-methyl-1-methylthiocarbazol)-2-yl-methyl]-1H-tetrazole]	4.97
CSc1c(CC(=O)O)cc(C)c2c3ccccc3n(Cc3ccc(Cl)cc3)c12 [Example 180, [9-(4-Chlorobenzyl)-4-methyl-1-methylthiocarbazol-2-yl]acetic Acid]	5.02
CSc1c(Cc2nnn[nH]2)ccc2c3ccccc3n(Cc3ccccc3)c12 [Example 77, 5-[(9-Benzyl-1-methylthiocarbazol)-2-ylmethyl]-1H-tetrazole]	3.69
Cc1cc(CC(=O)O)c([S+](C)[O-])c2c1c1ccccc1n2Cc1ccccc1 (stereo not shown) [Example 200, (9-Benzyl-1-methylsulfinyl-4-methylcarbazol-2-yl)acetic Acid]	3.59

Test system: M2 muscarinic receptors in the heart
Test: not given
Details: Tucek et al. 1993; cited from earlier work

Compound	effect on affinity of M2 muscarinic receptors for NMS
C=CC[N@@+]12CC[C@@]34c5ccccc5N5/C=C6/[C@H]7C[C@H]8[C@@]9(CC[N@@+]8(CC=C)C/C7=C/CO)c7ccccc7N(/C=C(/[C@@H](C[C@@H]31)/C(=C\CO)C2)[C@H]54)[C@@H]69 [alcuronium]	allosterically increases the affinity of M2 muscarinic receptors in the heart for NMS

Test system: heart receptors
Test: not given
Details: Riker and Wescoe 1951; cited from earlier work

Compound	action on heart receptors
CC[N+](CC)(CC)CCOc1cccc(OCC[N+](CC)(CC)CC)c1OCC[N+](CC)(CC)CC [gallamine]	negative action on heart receptors

Same assay, conditions: subsequently established; cited from earlier work

Compound	competitive antagonism for acetylcholine
CC[N+](CC)(CC)CCOc1cccc(OCC[N+](CC)(CC)CC)c1OCC[N+](CC)(CC)CC [gallamine]	not a competitive antagonist for acetylcholine

Test system: muscarinic receptors
Test: not given
Details: reported; cited from earlier work

Compound	allosteric effects on antagonist binding
batrachotoxin	negative allosteric effects on antagonist binding
COc1cc2c3cc1Oc1cc(ccc1O)C[C@@H]1c4c(cc(OC)c(O)c4Oc4ccc(cc4)C[C@@H]3N(C)CC2)CC[N+]1(C)C [Tubocurarine]	negative allosteric effects on antagonist binding
